# BindingDB's records for doi:10.1016/s0960-894x(99)00197-3 (The R. W. Johnson Pharmaceutical Research Institute, 1999)
# Where a SMILES comes first, the peptide text is derived from it. [ ]: non-standard residue; d: D form. The star is where a group is joined. Cha = N[C@@H](CC1CCCCC1)C(=O)O; Nicotinoyl = O=C(c1cccnc1)*; 3Abz = Nc1cccc(C(=O)O)c1
# Experiment: Inhibition of [3H]S-(p-F-Phe)-Har-L-Har-KY-NH2 binding to Thrombin receptor 1 (PAR-1) on membranes from CHRF cells
row,Structure (SMILES),EC50
1,N=C(N)NCCC[C@H](NC(=O)[C@H](CC1CCCCC1)NC(=O)c1cccnc1N)C(=O)N[C@@H](Cc1ccccc1)C(N)=O [2-Amino-N-{(S)-1-[(S)-1-((S)-1-carbamoyl-2-phenyl-ethylcarbamoyl)-4-guanidino-butylcarbamoyl]-2-cyclohexyl-ethyl}-nicotinamide],8000 nM
2,"COc1ccc(C=CC(=O)Nc2nnc(C(=O)N[C@@H](CC3CCCCC3)C(=O)N[C@@H](CCCNC(=N)N)C(=O)N[C@@H](Cc3ccccc3)C(N)=O)[nH]2)cc1 [5-[(E)-3-(4-Methoxy-phenyl)-acryloylamino]-1H-[1,2,4]triazole-3-carboxylic acid {(S)-1-[(S)-1-((S)-1-carbamoyl-2-phenyl-ethylcarbamoyl)-4-guanidino-butylcarbamoyl]-2-cyclohexyl-ethyl}-amide]",5600 nM
3,"N=C(N)NCCC[C@H](NC(=O)[C@H](CC1CCCCC1)NC(=O)c1nnc(NC(=O)C=Cc2ccccc2Cl)[nH]1)C(=O)N[C@@H](Cc1ccccc1)C(N)=O [5-[(E)-3-(2-Chloro-phenyl)-acryloylamino]-1H-[1,2,4]triazole-3-carboxylic acid {(S)-1-[(S)-1-((S)-1-carbamoyl-2-phenyl-ethylcarbamoyl)-4-guanidino-butylcarbamoyl]-2-cyclohexyl-ethyl}-amide]",1100 nM
4,"N=C(N)NCCC[C@H](NC(=O)[C@H](CC1CCCCC1)NC(=O)c1nnc(NC(=O)C=Cc2c[nH]c3ccccc23)[nH]1)C(=O)N[C@@H](Cc1ccccc1)C(N)=O [5-((E)-3-1H-Indol-3-yl-acryloylamino)-1H-[1,2,4]triazole-3-carboxylic acid {(S)-1-[(S)-1-((S)-1-carbamoyl-2-phenyl-ethylcarbamoyl)-4-guanidino-butylcarbamoyl]-2-cyclohexyl-ethyl}-amide]",14000 nM
5,N=C(N)NCCC[C@H](NC(=O)[C@H](CC1CCCCC1)NC(=O)c1cccnc1)C(=O)N[C@@H](Cc1ccccc1)C(N)=O [N-{(S)-1-[(S)-1-((S)-1-Carbamoyl-2-phenyl-ethylcarbamoyl)-4-guanidino-butylcarbamoyl]-2-cyclohexyl-ethyl}-nicotinamide] (Nicotinoyl-[Cha]-Arg-Phe-NH2),2000 nM
6,"N=C(N)NCCC[C@H](NC(=O)[C@H](CC1CCCCC1)NC(=O)c1csnn1)C(=O)N[C@@H](Cc1ccccc1)C(N)=O [[1,2,3]Thiadiazole-4-carboxylic acid {(S)-1-[(S)-1-((S)-1-carbamoyl-2-phenyl-ethylcarbamoyl)-4-guanidino-butylcarbamoyl]-2-cyclohexyl-ethyl}-amide]",1300 nM
7,N=C(N)NCCC[C@H](NC(=O)[C@H](CC1CCCCC1)NC(=O)c1cc2ccccc2s1)C(=O)N[C@@H](Cc1ccccc1)C(N)=O [Benzo[b]thiophene-2-carboxylic acid {(S)-1-[(S)-1-((S)-1-carbamoyl-2-phenyl-ethylcarbamoyl)-4-guanidino-butylcarbamoyl]-2-cyclohexyl-ethyl}-amide],8300 nM
8,N=C(N)NCCC[C@H](NC(=O)[C@H](CC1CCCCC1)NC(=O)c1ccccn1)C(=O)N[C@@H](Cc1ccccc1)C(N)=O [Pyridine-2-carboxylic acid {(S)-1-[(S)-1-((S)-1-carbamoyl-2-phenyl-ethylcarbamoyl)-4-guanidino-butylcarbamoyl]-2-cyclohexyl-ethyl}-amide],14000 nM
9,N=C(N)NCCC[C@H](NC(=O)[C@H](CC1CCCCC1)NC(=O)C=Cc1cccnc1)C(=O)N[C@@H](Cc1ccccc1)C(N)=O [(S)-2-[(S)-3-Cyclohexyl-2-((E)-3-pyridin-3-yl-acryloylamino)-propionylamino]-5-guanidino-pentanoic acid ((S)-1-carbamoyl-2-phenyl-ethyl)-amide],2600 nM
10,"N=C(N)NCCC[C@H](NC(=O)[C@H](CC1CCCCC1)NC(=O)c1nnc(NC(=O)C=Cc2ccc(C(F)(F)F)cc2)[nH]1)C(=O)N[C@@H](Cc1ccccc1)C(N)=O [5-[(E)-3-(4-Trifluoromethyl-phenyl)-acryloylamino]-1H-[1,2,4]triazole-3-carboxylic acid {(S)-1-[(S)-1-((S)-1-carbamoyl-2-phenyl-ethylcarbamoyl)-4-guanidino-butylcarbamoyl]-2-cyclohexyl-ethyl}-amide]",5000 nM
11,N=C(N)NCCC[C@H](NC(=O)[C@H](CC1CCCCC1)NC(=O)c1ccc(N)nc1)C(=O)N[C@@H](Cc1ccccc1)C(N)=O [6-Amino-N-{(S)-1-[(S)-1-((S)-1-carbamoyl-2-phenyl-ethylcarbamoyl)-4-guanidino-butylcarbamoyl]-2-cyclohexyl-ethyl}-nicotinamide],1200 nM

# Continued by falling EC50, values first:
row,EC50,Structure (SMILES)
1,10500 nM,"N=C(N)NCCC[C@H](NC(=O)[C@H](CC1CCCCC1)NC(=O)c1nnc(N)[nH]1)C(=O)N[C@@H](Cc1cccs1)C(N)=O [5-Amino-1H-[1,2,4]triazole-3-carboxylic acid {(S)-1-[(S)-1-((S)-1-carbamoyl-2-thiophen-2-yl-ethylcarbamoyl)-4-guanidino-butylcarbamoyl]-2-cyclohexyl-ethyl}-amide]"
2,4600 nM,N=C(N)NCCC[C@H](NC(=O)[C@H](CC1CCCCC1)NC(=O)c1ccc(Cl)nc1)C(=O)N[C@@H](Cc1ccccc1)C(N)=O [N-{(S)-1-[(S)-1-((S)-1-Carbamoyl-2-phenyl-ethylcarbamoyl)-4-guanidino-butylcarbamoyl]-2-cyclohexyl-ethyl}-6-chloro-nicotinamide]
3,2900 nM,"N=C(N)NCCC[C@H](NC(=O)[C@H](CC1CCCCC1)NC(=O)c1nnc(NC(=O)C=Cc2cccs2)[nH]1)C(=O)N[C@@H](Cc1ccccc1)C(N)=O [5-((E)-3-Thiophen-2-yl-acryloylamino)-1H-[1,2,4]triazole-3-carboxylic acid {(S)-1-[(S)-1-((S)-1-carbamoyl-2-phenyl-ethylcarbamoyl)-4-guanidino-butylcarbamoyl]-2-cyclohexyl-ethyl}-amide]"
4,2900 nM,N=C(N)NCCC[C@H](NC(=O)[C@H](CC1CCCCC1)NC(=O)c1cccc(N)c1)C(=O)N[C@@H](Cc1ccccc1)C(N)=O [3-Amino-N-{(S)-1-[(S)-1-((S)-1-carbamoyl-2-phenyl-ethylcarbamoyl)-4-guanidino-butylcarbamoyl]-2-cyclohexyl-ethyl}-benzamide] (H-[3Abz][Cha]RF-NH2)
5,1200 nM,N=C(N)NCCC[C@H](NC(=O)[C@H](CC1CCCCC1)NC(=O)c1ccc2c(c1)-c1ccccc1-2)C(=O)N[C@@H](Cc1ccccc1)C(N)=O [Biphenylene-2-carboxylic acid {(S)-1-[(S)-1-((S)-1-carbamoyl-2-phenyl-ethylcarbamoyl)-4-guanidino-butylcarbamoyl]-2-cyclohexyl-ethyl}-amide]
6,1000 nM,N=C(N)NCCC[C@H](NC(=O)[C@H](CC1CCCCC1)NC(=O)c1cnc2ccccc2n1)C(=O)N[C@@H](Cc1ccccc1)C(N)=O [Quinoxaline-2-carboxylic acid {(S)-1-[(S)-1-((S)-1-carbamoyl-2-phenyl-ethylcarbamoyl)-4-guanidino-butylcarbamoyl]-2-cyclohexyl-ethyl}-amide]
7,280 nM,CC(C)C[C@H](NC(=O)[C@H](CC(C)C)NC(=O)[C@H](Cc1ccccc1)NC(=O)[C@@H](N)CO)C(=O)N[C@@H](CCCNC(=N)N)C(=O)N[C@@H](CC(N)=O)C(N)=O [(S)-2-[(S)-2-((S)-2-{(S)-2-[(S)-2-((S)-2-Amino-3-hydroxy-propionylamino)-3-phenyl-propionylamino]-4-methyl-pentanoylamino}-4-methyl-pentanoylamino)-5-guanidino-pentanoylamino]-succinamide]
